Data on four compounds can be found in patent publication US20160361365A1, “TREATMENT OF CNS DISEASE WITH ENCAPSULATED INDUCIBLE CHOROID PLEXUS CELLS” (Living Cell Technologies New Zealand Limited, priority 2015, published 2016).

Molecules are shown by their SMILES. Structures can show the parent of a compound that is named as a salt.

Holding throughout (type): cell-based, porcine
Experiment [1] has as its system Choroid plexus (CP) cell clusters. As to the kind of experiment: Total antioxidant capacity (TAC) of culture supernatants of CP cell clusters exposed to candidate CP inducing agents (OxiSelect TAC assay). To be noted: non-encapsulated CP clusters, 72 hours; FIG. 2. On the procedure: Choroid plexus (CP) cell clusters comprising CP cells (5×10^3 clusters/mL) were prepared as described above in Example 1 but without encapsulation and cultured at 37° C. in a 5% CO2 incubator for 24 or 72 hours in vitro in 24-well ultra-low (cell) attachment plates, and culture supernatants were tested for total antioxidant capacity (TAC) using the OxiSelect™ TAC assay (Cat. No. STA-360, Cell Biolabs, Inc., San Diego, Calif.) according to the manufacturer's instructions. To avoid interference in the TAC assay from medium components, cultures were incubated in serum-free, phenol-free RPMI media supplemented with 10 mM nicotinamide. A panel of candidate CP inducing agents was also tested for effects on TAC elaboration by CP cells. Control wells that received the culture medium alone or with each candidate CP inducing agent, but no CP cell clusters, were also incubated and tested for TAC.

The test system of experiment [2] is encapsulated CP. Description: VEGF secretion by encapsulated CP cultured with or without inducers. To be noted: 1000 CP-containing capsules, 24 hours at 37° C.; FIG. 3B. The method, then:
To determine that certain inducers can increase the secretion of CSF components by CPs that have been encapsulated, 1000 CP-containing capsules were cultured in 24-well multi-well plate with or without various inducers including LiCl at 37° C. for 24 hours. Aliquots of supernatant fluids were collected and assayed for VEGF as described in EXAMPLE 1. Aliquots of the cell cultures were also collected for DNA quantification to determine the relative number of cells in each well as described in EXAMPLE 1.

For experiment [3], the system named is CP clusters containing CP cells. As to the kind of experiment: RNA-Seq of CP clusters for genes encoding CSF components after exposure to inducing agent. To be noted: 12 mM LiCl, 72 hours, vs controls; FIG. 8. On the procedure: In a further experiment to identify genes for which the expression levels were altered in CP cells following contact with an inducing agent as provided herein, CP clusters (5×10^3 clusters/mL) containing CP cells, obtained from 12-13 day-old piglets and cultured in vitro for 20-22 days, were incubated for 72 hours in serum-free, phenol-free RPMI medium containing 10 mM nicotinamide in the absence (controls) or presence (inducing agent-treated) of 12 mM LiCl. Cell pellets were harvested and 0.25 ml of TRI™ Reagent (Catalog # T9424, Sigma-Aldrich Corporation, St. Louis, Mo.) was added to lyse the cells. The lysate was pipetted up and down approximately 10 times and stored at −80° C. until RNA-Seq analysis. […] Corresponding human genes encoding human CSF components were identified by established orthology analysis (Groenen et al., 2012 Nature 491(7424):393-8).

Take `[Cl-].[Li+]` [LiCl, lithium chloride]: in experiment [1], the “release of total antioxidant capacity (TAC) by CP cells” value is reported as “promoted the release by CP cells of elevated TAC levels”. Also, the “VEGF secretion by encapsulated CP versus culture without inducers” value in experiment [2] is reported as “induced VEGF secretion by encapsulated CP above the level secreted by encapsulated CPs cultured without inducers”. Moreover, the “expression levels of porcine genes encoding known CSF components” value in experiment [3] is “expression levels increased (FIG. 8A-E) or decreased (FIG. 8F-K)”. Turning to `NCCS(=O)(=O)O` [taurine, 2-aminoethanesulfonic acid], in experiment [2], the “VEGF secretion by encapsulated CP versus culture without inducers” value is “induced VEGF secretion by encapsulated CPs”. Take `COC1=C(OC)C(=O)C(CCCCCCCCCC[P+](c2ccccc2)(c2ccccc2)c2ccccc2)=C(C)C1=O` [MitoQ, 10-(6′-ubiquinoyl) decyltriphenylphosphonium salt]: the “VEGF secretion by encapsulated CP versus culture without inducers” value in experiment [2] is given as “induced VEGF secretion by encapsulated CPs”. The same measure, in the same setting: the same measure for `O=C([O-])[O-].[Li+].[Li+]` [lithium carbonate]: “induced VEGF secretion by encapsulated CP above the level secreted by encapsulated CPs cultured without inducers”.
